Where a name gives a salt, the structure may show the parent alone.
What was measured:
[1] = target: CHK2 (checkpoint kinase 2) (Homo sapiens, UniProt O96017); assay: Inhibitory activity against CHK2; assay type: biochemical
[2] = system: N-terminal propeptide of type I procollagen (P1NP); assay: Bone biomarker evaluation: serum P1NP assay; assay type: in vivo, rat; conditions: oral once a day, 7 consecutive days, female CRL:CD rats
Description: For in vitro osteogenesis, human adipose-derived stem cells (hADSC) (Invitrogen, UK; catalogue number R7788-115) were seeded into 12-well plates at a density of 5000 cells/cm^2 and were cultured in a basal media of phenol red-free Dulbecco's Modified Eagles Medium (DMEM; Sigma-Aldrich, UK; catalogue number D1145) supplemented with 5% fetal bovine serum (FBS, Gibco, UK; catalogue number 10270) and 2 mM GlutaMax® (Gibco; catalogue number 35050). […] The formation of mineralized bone nodules was assessed during the time-course using Alizarin Red S staining. […] The amount of mineralisation was quantified through the extraction of the Alizarin Red S stain from bone nodules using a cetylpyridinium chloride extraction method, previously described (Gregory et al., Analytical Biochemistry, 2004, 329: 77-84; Hwang et al., Stem Cells and Development 17: 963-970, 2008). […] Following incubation, 200 μl aliquots were transferred to 96-well format and the absorbance at 550 nm was determined using a microplate spectrophotometer (SpectraMax Plus, Molecular Devices, USA). Data were expressed as mean absorbance at 550 nm±Standard error of mean (SEM). […] Data are shown as mean absorbance at 550 nm and analysed using one-way ANOVA followed by Tukey's multiple comparison post hoc test: n=9; ***, P<0.001. […]

Sequence of CHK2 (checkpoint kinase 2) (O96017 whole entry, species assumed): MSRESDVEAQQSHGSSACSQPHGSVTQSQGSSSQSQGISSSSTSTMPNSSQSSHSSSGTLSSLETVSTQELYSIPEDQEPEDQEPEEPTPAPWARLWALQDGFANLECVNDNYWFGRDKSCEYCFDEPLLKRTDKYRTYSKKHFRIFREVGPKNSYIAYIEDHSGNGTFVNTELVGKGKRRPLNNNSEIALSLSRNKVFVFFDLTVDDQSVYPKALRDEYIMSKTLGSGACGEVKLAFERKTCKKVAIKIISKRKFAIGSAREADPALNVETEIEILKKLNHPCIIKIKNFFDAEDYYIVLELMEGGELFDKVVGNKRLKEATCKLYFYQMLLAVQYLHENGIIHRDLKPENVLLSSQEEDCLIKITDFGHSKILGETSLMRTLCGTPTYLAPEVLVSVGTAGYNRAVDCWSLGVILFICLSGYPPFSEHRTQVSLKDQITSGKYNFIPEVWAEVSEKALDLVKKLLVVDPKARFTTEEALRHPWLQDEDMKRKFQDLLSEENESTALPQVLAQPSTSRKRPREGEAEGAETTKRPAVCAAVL

COCCCNCCCc1ccc(-c2cnc(N)c(C(=O)Nc3cccnc3)n2)cc1 [Example 1, 3-Amino-6-(4-{3-[(3-methoxypropyl)amino]propyl}phenyl)-N-pyridin-3-ylpyrazine-2-carboxamide tri-hydrochloride]
Inhibitory activity against CHK2 [1]: inhibitory activity
Serum P1NP levels (marker of bone formation) [2]: increase in serum P1NP levels

— US8198285B2, “Pyrazine derivatives” (Astrazeneca AB, priority 2010, dated 2012)
